The text below walks through data of PMC10825133, “Repurposing proteasome inhibitors for improved treatment of triple-negative breast cancer” (Cell Death Discovery, 2024).

The test system of one data set is CAL-148 cells. As to the kind of experiment: Resazurin-based cell viability assay, monotherapy drug screen. Details: species or system human; AUC: unit not given beside the values. To be noted: CAL-148; for AUC: area under the dose response curve, 24 h; for GRmax: drug efficacy at highest tested dose (<0 cytotoxic, 0 cytostatic, >0 partial growth inhibition). As for the experimental part:
(§1) Eighteen pharmaceutical compounds were purchased from Selleckchem (Supplementary Table 2). Stock solutions were prepared using dimethyl sulfoxide (DMSO; Merck), physiological saline (sodium chloride 0.9%) or Milli-Q water, and stored at −80 °C. […] Matched concentration solvent vehicle controls were used for each drug concentration. The drug screens were performed in triplicate and repeated three (monotherapy) or two (combination therapy) times (Fig. 7).
(§2) The optimal seeding density per 96-well was determined for each cell line as previously described. The cells were seeded at a density of 4.0 × 10^3 to 7.5 × 10^3 (cell type dependent) in 96-well clear, flat-bottom microplates (Corning Life Sciences, Sigma-Aldrich) in 100 µl complete culture medium (Supplementary Table 1) and cultured for 24 h. Cell viability was determined using the resazurin assay in untreated cells at the time of plating (t = 0) and treated cells after 24 h drug treatment (Fig. 7). Percentage cell viability was calculated as 100% × (absorbance of treated cells – absorbance of background controls) / (absorbance of matched solvent vehicle controls – absorbance of background controls). The area under the curve (AUC), half-maximal inhibitory concentration (IC50), drug potency (GR50), and drug efficacy (GRmax) were determined for each compound using the GRmetrics (version 1.20.0) package in R. The monotherapy data were evaluated with the IDACombo (version 1.0.2) package in R to predict potential drug combinations (Table 1). SynergyFinder (version 3.2.10) package in R was used to identify synergistic drug combinations.
(§3) Eighteen pharmaceutical compounds were purchased from Selleckchem. […] The solubility of the compound was enhanced by pre-heating the solvent (lukewarm), if necessary. […] The stock solutions were stored at -80°C. […] Matched concentration solvent vehicle controls were used for each drug concentration. The drug screens were performed in triplicate and repeated three times for the monotherapies and twice for the combination treatments. The drug(s) and corresponding controls were plated in 96-well PCR plates (VWR) and stored at -20°C (Fig. 6). The drug plates were thawed, centrifuged (3000 rpm for 30s), and acclimatized to RT before the drugs were added to the cells. New drug plates were prepared for each drug screen.
Cell viability was measured daily (day 0 [plating day] to day 4) using 0.2 mg/ml resazurin solution prepared from resazurin sodium salt (Fisher Scientific) dissolved in sterile 1xPBS (ThermoFisher Scientific). Before use, the resazurin solution was brought to RT before 10 µl (10% of cell medium volume) was added to each 96-well and incubated for 4h at 37°C. […] The slope of the curve was used to determine the optimal seeding density, i.e., the highest seeding density with linear growth between days 1 and 3.
(§4) The cells were seeded at a density of 4.0x10^3 to 7.5x10^3 (cell type-dependent) in 96-well clear, flat-bottom microplates (Corning Life Sciences, Sigma-Aldrich) in 100 µl culture medium supplemented with 10% FBS and cultured for 24h. Cell viability was determined using the resazurin assay after 24h drug treatment (Fig. 6). Percentage cell viability was calculated as 100% × (absorbance of treated cells – absorbance of background controls) / (absorbance of matched solvent vehicle controls – absorbance of background controls). Normalized growth rate inhibition (GR) was assessed using the absorbance of untreated cells after the time of plating (t = 0). […] For combination treatment, the monotherapy data were evaluated with the IDACombo (version 1.0.2)[20] package in R to predict potential drug combinations (Table 1). SynergyFinder (version 3.2.10)[21] package in R was used to identify synergistic drug combinations.
(In general: Resazurin is reduced to fluorescent resorufin, in cell work by metabolically active cells.)

Another data set relates to BT-549 cells. Described as above. More on the design: species or system human; AUC: scale not given here. To be noted: BT-549; for AUC: area under the dose response curve, 24 h; for GRmax: drug efficacy at highest tested dose (<0 cytotoxic, 0 cytostatic, >0 partial growth inhibition). As for the experimental part:
(§5) Eighteen pharmaceutical compounds were purchased from Selleckchem. […] The stock solutions were stored at -80°C. […] New drug plates were prepared for each drug screen.
(§6) To determine the optimal seeding density and ensure that the cells were in the exponential phase during the duration of the experiment (approx. 52h), each cell line (BT-549, CAL-148, HCC1806, HCC38, HCC70, MCF-10A, MCF-7, MDA-MB-436, MDA-MB-453, and MDA-MB-468) was seeded at different concentrations (1000 to 16000 cells) per 96-well, as previously described. Cell viability was measured daily (day 0 [plating day] to day 4) using 0.2 mg/ml resazurin solution prepared from resazurin sodium salt (Fisher Scientific) dissolved in sterile 1xPBS (ThermoFisher Scientific). Before use, the resazurin solution was brought to RT before 10 µl (10% of cell medium volume) was added to each 96-well and incubated for 4h at 37°C. The absorbance was measured with a 560 nm excitation filter and a 615 nm emission filter in a Wallac 1420 VICTOR2™ microplate reader (Perkin Elmer). The slope of the curve was used to determine the optimal seeding density, i.e., the highest seeding density with linear growth between days 1 and 3.

The subject of another data set is HCC1806 cells. The data set is described as above. More on the design: species or system human; AUC: scale not given here. To be noted: HCC1806; for AUC: area under the dose response curve, 24 h; for GRmax: drug efficacy at highest tested dose (<0 cytotoxic, 0 cytostatic, >0 partial growth inhibition). As to the method: as §5, §6
The next data set relates to HCC38 cells. Described as above. Details: species or system human; AUC: scale not given here. To be noted: HCC38; for AUC: area under the dose response curve, 24 h; for GRmax: drug efficacy at highest tested dose (<0 cytotoxic, 0 cytostatic, >0 partial growth inhibition). As for the experimental part:
as §5, §6

The next data set deals with HCC70 cells. The description is as above. To be noted: HCC70; for AUC: area under the dose response curve, 24 h; for GRmax: drug efficacy at highest tested dose (<0 cytotoxic, 0 cytostatic, >0 partial growth inhibition). Details: species or system human; AUC: scale not given here. As for the experimental part: as §5, §6
Another data set deals with MCF-10A cells. The description is as above. More on the design: species or system human; AUC: scale not given here. To be noted: for AUC: area under the dose response curve, 24 h; for GRmax: drug efficacy at highest tested dose (<0 cytotoxic, 0 cytostatic, >0 partial growth inhibition). As to the method: as §5, §6
The subject of another data set is MCF-7 cells. The data set is described as above. More on the design: species or system human; AUC: scale not given here. To be noted: MCF-7; for AUC: area under the dose response curve, 24 h; for GRmax: drug efficacy at highest tested dose (<0 cytotoxic, 0 cytostatic, >0 partial growth inhibition). As to the method: as §5, §6
A further data set concerns MDA-MB-436 cells. Described as above. Details: species or system human; AUC: scale not given here. To be noted: MDA-MB-436; for AUC: area under the dose response curve, 24 h; for GRmax: drug efficacy at highest tested dose (<0 cytotoxic, 0 cytostatic, >0 partial growth inhibition). As to the method:
as §5, §6

The subject of a further data set is MDA-MB-453 cells. Described as above. Details: species or system human; AUC: scale not given here. To be noted: MDA-MB-453; for AUC: area under the dose response curve, 24 h; for GRmax: drug efficacy at highest tested dose (<0 cytotoxic, 0 cytostatic, >0 partial growth inhibition). As to the method: as §5, §6
The next data set relates to MDA-MB-468 cells. The data set is described as above. To be noted: MDA-MB-468; for AUC: area under the dose response curve, 24 h; for GRmax: drug efficacy at highest tested dose (<0 cytotoxic, 0 cytostatic, >0 partial growth inhibition). More on the design: species or system human; AUC: scale not given here. As to the method:
as §5, §6

In data set [1] the test system is eight TNBC cell lines (BT-549, CAL-148, HCC1806, HCC38, HCC70, MDA-MB-436, MDA-MB-453, MDA-MB-468). As to the kind of experiment: Monotherapy drug screen, mean across the TNBC cell lines. As to the method: as §1, §2, §3, §4

In the case of `CCCc1ccc(OCC(=O)N(Cc2nc(-c3cccnc3)no2)C(C)C)cc1` [PI-1840], the AUC turned out to be 1.0 in the data set with CAL-148 cells; 0.99 in the data set with BT-549 cells; 1.0 in the data set on HCC1806 cells; 1.0 with HCC38 cells; 1.0 in the data set on HCC70 cells; 1.0 in the data set with MCF-10A cells. Moreover, the AUC in the data set on MCF-7 cells is reported as 1.0; in the data set with MDA-MB-436 cells, 1.0; in the data set on MDA-MB-453 cells it was 1.0; in the data set with MDA-MB-468 cells, 0.98. Moreover, the GRmax in the data set on CAL-148 cells stood at 1.0; in the data set on BT-549 cells, 1.0; with HCC1806 cells it was 0.98; in the data set on HCC38 cells, 1.0; in the data set with HCC70 cells, 1.0; with MCF-10A cells, 1.0. Also, the GRmax was 0.97 in the data set with MCF-7 cells, 1.0 in the data set with MDA-MB-436 cells, 0.93 in the data set on MDA-MB-453 cells and 0.96 in the data set with MDA-MB-468 cells. For the same molecule, in data set [1], the “cytotoxic effect at the highest dose” value is “lowest cytotoxic effects”.
Take `O=[N+]([O-])c1ccc(S(=O)(=O)N2CCN(c3ccnc4cc(Cl)ccc34)CC2)c([N+](=O)[O-])c1` [VR-23]: the AUC turned out to be 1.0 in the data set on CAL-148 cells; 0.98 in the data set with BT-549 cells; 1.0 in the data set on HCC1806 cells; 1.0 in the data set with HCC38 cells; 0.98 in the data set on HCC70 cells; 1.0 in the data set with MCF-10A cells. The AUC is on record as 0.98 with MCF-7 cells, 1.0 in the data set on MDA-MB-436 cells, 0.99 in the data set on MDA-MB-453 cells and 0.97 in the data set on MDA-MB-468 cells. The GRmax is 0.95 with CAL-148 cells; 0.85 in the data set with BT-549 cells; 0.93 with HCC1806 cells; 0.95 in the data set on HCC38 cells; 0.82 with HCC70 cells; 1.0 in the data set with MCF-10A cells. Besides, the GRmax with MCF-7 cells is listed as 0.82; in the data set on MDA-MB-436 cells it was 1.0; with MDA-MB-453 cells, 0.40; in the data set with MDA-MB-468 cells, 0.74. Besides, in the data set on MCF-7 cells (24 h drug treatment, read-out: IC50), the 50% inhibitory concentration (IC50) (usually the concentration that gives 50% inhibition) is 6 µM. In data set [1], the “cytotoxic effect at the highest dose” value was “lowest cytotoxic effects”.
